What was measured:
[1] = Pharmacokinetic study of compounds in mice, Example 25; type: in vivo, male C57BL/6 mice; conditions: Brain, Oral, 5 mg/kg
Protocol: Healthy male C57BL/6 mice (8-12 weeks old) weighing between 17 to 35 g were procured from Global, India. Temperature and humidity were maintained at 22±3° C. and 30-70%, respectively and illumination was controlled to give a sequence of 12 hr light and 12 hr dark cycle. Temperature and humidity were recorded by auto-controlled data logger system. All the animals were provided laboratory rodent diet. Reverse osmosis water treated with ultraviolet light was provided ad libitum.
Protocol A: Twenty-four male mice were divided into two groups as; Group 1: 30 mg/kg/IP; Plasma and brain; Number of animals=12; Animal #1-12. Group 2: 30 mg/kg/PO; Plasma and brain; Number of animals=12; Animal #13-24. […] All samples were processed for analysis by protein precipitation using acetonitrile and analyzed with fit-for-purpose LC/MS/MS method (LLOQ—2.02 ng/mL for plasma and 6.06 ng/g for brain). Pharmacokinetic parameters were calculated using the non-compartmental analysis tool of Phoenix WinNonlin®.
Protocol B: Thirty six mice were included into the study and divided in to three groups as Group 1 (n=12), Group 2 (n=12) and Group 3 (n=12) with n=2 mice per time-point design. […] Plasma and brain samples were quantified by fit-for-purpose LC-MS/MS method (LLOQ: 1.01 ng/mL for plasma and 2.02 ng/mL for brain). […]

[2] = biological target: T1, human MAGL (Homo sapiens, UniProt Q99685); assay: MAGL inhibition potency (IC50) with 4NPA substrate, Example 20, methods of Table C; type: biochemical; conditions: Method 12: Enzyme Conc 15, Reaction Biology (15 nM); read-out: MAGL Potency (Detection Method)
T1 construct: recombinant MAGL enzyme (aa 2-303 RBC, internal preparation)
T1 sequence (Q99685 2-303): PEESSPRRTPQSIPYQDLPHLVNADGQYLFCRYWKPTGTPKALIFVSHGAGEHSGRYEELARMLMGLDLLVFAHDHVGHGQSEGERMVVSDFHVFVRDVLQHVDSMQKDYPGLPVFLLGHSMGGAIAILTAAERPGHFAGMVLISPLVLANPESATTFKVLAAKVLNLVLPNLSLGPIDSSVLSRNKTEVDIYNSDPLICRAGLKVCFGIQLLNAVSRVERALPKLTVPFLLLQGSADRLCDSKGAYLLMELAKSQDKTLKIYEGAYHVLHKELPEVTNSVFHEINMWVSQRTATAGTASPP

[3] = biological target: T2, MAGL enzyme (Homo sapiens, UniProt Q99685); assay: MAGL reversible inhibition assay (washout), Example 22; type: biochemical; design: % MAGL activity returning after washout: concentration or dose not given beside the values
T2 sequence (Q99685 1-303): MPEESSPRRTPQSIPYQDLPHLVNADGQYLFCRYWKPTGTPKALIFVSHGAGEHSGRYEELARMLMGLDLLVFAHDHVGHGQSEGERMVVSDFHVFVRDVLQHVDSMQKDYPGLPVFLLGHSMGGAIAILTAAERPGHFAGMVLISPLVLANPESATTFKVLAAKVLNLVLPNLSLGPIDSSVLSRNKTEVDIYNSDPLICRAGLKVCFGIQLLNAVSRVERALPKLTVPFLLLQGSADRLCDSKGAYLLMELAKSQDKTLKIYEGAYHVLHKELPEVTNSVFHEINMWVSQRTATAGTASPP
Protocol: The reversible mechanism of MAGL inhibition of a test compound of Formula (I) can be determined. Flag-tagged MAGL enzyme will be immobilized on anti-Flag beads. Immobilized enzyme will be incubated+/−inhibitor at a dose that produces complete inhibition. Colorimetric substrate (4-NPA) will be added and the reaction monitored on a plate reader for 30 minutes to verify complete inhibition. Immobilized enzyme will then be washed thoroughly to remove the inhibitor, and fresh substrate will be added. The reaction will be monitored for an additional 30 minutes; returning enzymatic activity will indicate reversibility of inhibition. […]
For some test compounds, % activity returning after washout may be less than 100%/if complete compound unbinding takes longer than 30 minutes.

Row | IC50 [2] [nM] | degree to which MAGL enzymatic activity returned following washout of test compounds ([3]; pre-washout compound concentration 1 μM) | % MAGL activity returning after washout ([3]; relative to control (no inhibitor before washout), immediately following 30 minute washout) [%] | SMILES | AUClast [1] [ng·h/mL]
1 | – | – | – | Cc1cnn(C2CC3(C2)CN(C(=O)c2cc(O)ccc2F)C3)c1-c1cc(F)ccc1F (single isomer, unassigned) [Compound 476, {6-[5-(2,5-difluorophenyl)-4-methyl-1-pyrazolyl]-2-aza-2-spiro[3.3]heptyl}(2-fluoro-5-hydroxyphenyl)methanone] | 223.64
2 | < 50 | 100 | >50 | Cc1cn(C2CC3(C2)CN(C(=O)c2cc(O)ccc2F)C3)nc1-c1cc(F)ccc1Cl (single isomer, unassigned) [Compound 520, {6-[3-(2-chloro-5-fluorophenyl)-4-methyl-1-pyrazolyl]-2-aza-2-spiro[3.3]heptyl}(2-fluoro-5-hydroxyphenyl)methanone] | –

— patent publication US20250170101A1, “MONOACYLGLYCEROL LIPASE INHIBITORS AND USE THEREOF FOR THE TREATMENT AND MANAGEMENT OF PAIN AND RELATED CONDITIONS” (Psy Therapeutics, Inc., priority 2021, published 2025)
